Measured values taken from patent US10689366B2, “Compounds for MALT1 degredation” (Cornell University, priority 2016, dated 2020).
Like-named read-outs stand apart in the source and are kept apart here.

Experiments:
MALT1 [1] = molecular target: T1, MALT1 (Homo sapiens, UniProt Q9UDY8); assay: Mechanistic validation of MALT1 degradation in wild type and CRBN knockout 293T cells (Western blot); assay type: cell-based; parameters: endogenous in cells; details: wild type vs CRBN knockout 293T cells, 10 μM, 24 hours; FIG. 2
T1 sequence (Q9UDY8 1-824): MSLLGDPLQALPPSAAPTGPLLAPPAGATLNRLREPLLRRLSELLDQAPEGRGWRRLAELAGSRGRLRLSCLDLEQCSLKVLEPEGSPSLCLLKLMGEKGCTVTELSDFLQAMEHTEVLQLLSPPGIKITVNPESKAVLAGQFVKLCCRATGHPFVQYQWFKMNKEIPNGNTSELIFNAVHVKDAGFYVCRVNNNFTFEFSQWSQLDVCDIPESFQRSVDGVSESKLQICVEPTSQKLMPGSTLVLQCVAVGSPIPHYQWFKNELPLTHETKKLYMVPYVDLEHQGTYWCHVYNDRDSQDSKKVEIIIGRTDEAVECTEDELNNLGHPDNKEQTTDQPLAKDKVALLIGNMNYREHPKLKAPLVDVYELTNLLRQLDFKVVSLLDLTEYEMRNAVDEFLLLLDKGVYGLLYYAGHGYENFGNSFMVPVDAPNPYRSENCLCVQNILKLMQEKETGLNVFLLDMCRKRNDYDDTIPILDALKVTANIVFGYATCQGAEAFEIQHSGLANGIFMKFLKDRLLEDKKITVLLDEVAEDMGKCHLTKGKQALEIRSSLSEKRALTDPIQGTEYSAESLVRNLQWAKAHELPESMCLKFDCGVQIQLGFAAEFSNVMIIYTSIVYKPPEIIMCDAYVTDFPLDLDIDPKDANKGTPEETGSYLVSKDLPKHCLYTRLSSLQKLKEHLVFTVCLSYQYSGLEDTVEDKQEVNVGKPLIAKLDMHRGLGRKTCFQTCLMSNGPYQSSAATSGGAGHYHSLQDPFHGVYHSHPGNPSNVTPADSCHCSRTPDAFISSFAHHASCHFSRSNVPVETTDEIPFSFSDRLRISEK
Procedure: Wild type and CRBN knockout 293T cells were treated with 10 μM of Example 1 or vehicle for 24 hours, and protein lysates were collected. The protein was analyzed by Western blot and immunoassayed for MALT1, CRBN, and Actin.
Wild type and CRBN knockout 293T cells were treated with 10 μM of Example 1 or vehicle for 24 hours, and protein lysates were collected. 80 μg of protein were analyzed by Western blot and immunoassayed for MALT1, CRBN and Actin.

MALT1 [2] = molecular target: T1, MALT1; assay: MALT1 degradation assay (Western blot) in OCI-Ly3 cells; assay type: cell-based; parameters: endogenous in cells; host or cells: OCI-Ly3; details: 48 hours, normalized to Actin, relative to vehicle treated cells
Procedure: In the experiments, OCI-Ly3 cells were grown for 6 hours in the presence of the indicated concentrations of Examples 1-6, 9, and 10. Proteins were extracted, analyzed by Western blot, and membranes were immunoblotted for MALT1, CRBN, and Actin. Table 3 provides the results of experimental data obtained from the example compounds of the present disclosure. In particular, OCI-Ly3 cells were grown for 48 hours in the presence of the indicated concentrations of Examples 1-19. Proteins were extracted, analyzed by Western blot, and membranes were immunoblotted for MALT1, CRBN, and Actin. Western blot bands were quantified using Image Lab software. Results were normalized to Actin expression and presented as % MALT1 degradation relative to vehicle treated cells.

[3] = read-out: % MALT1 Degradation at 1 μM

Row | SMILES | CRBN-dependent MALT1 degradation (MALT1 [1]) | % MALT1 degradation at 1 µM (MALT1 [2]; [3]) [%] | % MALT1 degradation at 1 µM (MALT1 [2]) [%]
1 | C[C@@H](c1c(NC(=O)Nc2cnc(-n3nccn3)c(Cl)c2)cnc2cc(Cl)nn12)N(C)C(=O)CCOCCOCCOCCOCCNc1cccc2c1C(=O)N(C1CCC(=O)NC1=O)C2=O (stereo partly drawn) [Example 1, N—((S)-1-(2-Chloro-6-(3-(5-chloro-6-(2H-1,2,3-triazol-2-yl)pyridin-3-yl)ureido)pyrazolo[1,5-a]pyrimidin-7-yl)ethyl)-1-((2-(2,6-dioxopiperidin-3-yl)-1,3-dioxoisoindolin-4-yl)amino)-N-methyl-3,6,9,12-tetraoxapentadecan-15-amide] | promoted CRBN-dependent MALT1 degradation | 31 to 50 | –
2 | CO[C@@H](C)c1c(NC(=O)Nc2cnc(-n3cc(CNC(=O)CCOCCOCCOCCN4CCN(Cc5ccc(COc6cccc7c6CN([C@H]6CCC(=O)NC6=O)C7=O)cc5)CC4)cn3)c(Cl)c2)cnc2cc(Cl)nn12 [Example 18, N-((1-(3-Chloro-5-(3-(2-chloro-7-((S)-1-methoxyethyl)pyrazolo[1,5-a]pyrimidin-6-yl)ureido)pyridin-2-yl)-1H-pyrazol-4-yl)methyl)-3-(2-(2-(2-(4-(4-(((2-((5)-2,6-dioxopiperidin-3-yl)-1-oxoisoindolin-4-yl)oxy)methyl)benzyl)piperazin-1-yl)ethoxy)ethoxy)ethoxy)propanamide] | – | – | >50
3 | CO[C@@H](C)c1c(NC(=O)Nc2cc(Cl)cnc2OCCNC(=O)CCOCCOCCOCCN2CCN(Cc3ccc(COc4cccc5c4CN([C@H]4CCC(=O)NC4=O)C5=O)cc3)CC2)cnc2cc(Cl)nn12 [Example 19, N-(2-((5-Chloro-3-(3-(2-chloro-7-((S)-1-methoxyethyl)pyrazolo[1,5-a]pyrimidin-6-yl)ureido)pyridin-2-yl)oxy)ethyl)-3-(2-(2-(2-(4-(4-(((2-((S)-2,6-dioxopiperidin-3-yl)-1-oxoisoindolin-4-yl)oxy)methyl)benzyl)piperazin-1-yl)ethoxy)ethoxy)ethoxy)propanamide] | – | > 50 | –
